From patent US5554644A, “Tachykinin (NK2) antagonists” (Warner-Lambert Company, priority 1994, dated 1996)

What was measured:
[1] = target: T1, NK2 receptor (Mesocricetus auratus, UniProt P51144); experiment: NK2 receptor binding: binding of [^125 I]-iodohistidyl neurokinin A (0.1 nM) to hamster urinary bladder membranes
T1 construct: to hamster urinary bladder membranes; from tissue; host or cells: hamster urinary bladder membranes
T1 sequence (P51144 1-384): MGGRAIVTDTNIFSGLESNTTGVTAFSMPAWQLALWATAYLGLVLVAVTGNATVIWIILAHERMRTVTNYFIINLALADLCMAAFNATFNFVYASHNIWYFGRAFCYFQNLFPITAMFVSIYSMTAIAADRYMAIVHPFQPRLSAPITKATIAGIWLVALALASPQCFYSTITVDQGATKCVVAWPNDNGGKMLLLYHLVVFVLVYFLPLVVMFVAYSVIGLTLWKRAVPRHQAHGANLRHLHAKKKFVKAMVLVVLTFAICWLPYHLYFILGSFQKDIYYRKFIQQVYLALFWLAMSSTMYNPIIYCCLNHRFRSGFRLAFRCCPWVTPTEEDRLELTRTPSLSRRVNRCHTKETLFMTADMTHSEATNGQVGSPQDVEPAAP
Procedure: Some of the compounds of the invention were evaluated in tachykinin binding assays.
For the NK2 receptor-measurement of the binding of [^125 I]-iodohistidyl neurokinin A (0.1 nM) to hamster urinary bladder membranes. See Buck and Shatzer, Life Sci., 42:2701 (1988).

[2] = tested on: NK1 receptor; settings: cited from earlier work; for antagonists at the NK1 receptor: nonpeptide antagonists
[3] = tested on: NK2 receptors; settings: cited from earlier work

Row | Molecule | IC50 [1] [nM] | further results
1 | COc1ccccc1CN[C@H]1C2CCN(CC2)[C@H]1C(c1ccccc1)c1ccccc1 [CP-96,345] | – | antagonists at the NK1 receptor [2]: antagonists at the NK1 receptor
2 | COc1cccc(COC(=O)N[C@@H](Cc2c[nH]c3ccccc23)C(=O)N[C@@](C)(Cc2ccccc2)C(=O)OCCO)c1OC [Compound IV, L-Phenylalanine, N-[N-[[(2,3-dimethoxyphenyl)methoxy]carbonyl]L-tryptophyl]-α-methyl- , 2-hydroxyethyl ester] | 150 | –
3 | COc1cccc(COC(=O)N[C@@H](Cc2c[nH]c3ccccc23)C(=O)N[C@@](C)(Cc2ccccc2)C(=O)N(C)CCO)c1OC [Compound VII, L-Phenylalaninamide, N-[[(2,3-dimethoxyphenyl)methoxy]-carbonyl]-L-tryptophyl-N-(2-hydroxyethyl)-N,α-dimethyl] | > 10000 | –
4 | COc1cccc(COC(=O)N[C@@H](Cc2c[nH]c3ccccc23)C(=O)N[C@](C)(COCCO)Cc2ccccc2)c1OC [Compound XII, Carbamic acid, [2-[[1-[(2-hydroxyethoxy)methyl]-1-methyl-2-phenylethyl]amino]-1-(1H-indol-3-ylmethyl)-2-oxoethyl]-, (2,3-dimethoxyphenyl)methyl ester, [S-(R*, R*)]-.] | 250 | –
5 | COc1ccccc1CC(=N)N1C[C@@H]2C(=O)CCC(c3ccccc3)(c3ccccc3)[C@@H]2C1 [RP 67580] | – | antagonists at the NK1 receptor [2]: antagonists at the NK1 receptor
6 | CC(=O)NC1(c2ccccc2)CCN(CC[C@H](CN(C)C(=O)c2ccccc2)c2ccc(Cl)c(Cl)c2)CC1 [SR 48969] | – | affinity and selectivity for NK2 receptors [3]: high affinity and selectivity for NK2 receptors
7 | substance-P | – | affinity for NK1 receptors [2]: highest affinity for NK1 receptors

More lines, main results first:

Row | IC50 [1] [nM] | Molecule | further results
8 | 360 | COc1cccc(COC(=O)NC(Cc2c[nH]c3ccccc23)C(=O)NC(C)(Cc2ccccc2)C(O)CCCO)c1OC (single isomer, unassigned) [Compound XX, Carbamic acid, [2-[[2,5-dihydroxy-1-methyl-1-(phenylmethyl)pentyl]amino]-1-(1H-indol-3-ylmethyl)-2-oxoethyl]-, (2,3-dimethoxyphenyl)methyl ester] | –
9 | 330 | COc1cccc(COC(=O)NC(Cc2c[nH]c3ccccc23)C(=O)NC(C)(Cc2ccccc2)C(O)CCCO)c1OC (single isomer, unassigned) [Compound XXI, Carbamic acid, [2-[[2,5-dihydroxy-1-methyl-1-(phenylmethyl)pentyl]amino]-1-(1H-indol-3-ylmethyl)-2-oxoethyl]-, (2,3-dimethoxyphenyl)methyl ester] | –
10 | 22 | COc1cccc(COC(=O)N[C@@H](Cc2c[nH]c3ccccc23)C(=O)N[C@@](C)(Cc2ccccc2)C(=O)CCCO)c1OC [XXVI, Carbamic acid, [2-[[5-hydroxy-1-methyl-2-oxo-1-(phenylmethyl)pentyl]amino]-1-(1H-indol-3-ylmethyl)-2-oxoethyl]-, (2,3-dimethoxyphenyl)methyl ester] | –
